Test results from PMC3948622, “Docking, Synthesis and Antiproliferative Activity of N-Acylhydrazone Derivatives Designed as Combretastatin A4 Analogues” (PLoS ONE, 2014).
In brackets after ≈: the same amount, converted by molar mass. Like-named read-outs stand apart in the source and are kept apart here.

Key:
[1] = test system: HL-60 (human leukemia); test: In vitro antiproliferative MTT assay, HL-60; assay type: cell-based; details: for IC50: Homo sapiens, HL-60; for SI Lymphocyte/ HL-60: IC50 for human lymphocytes/IC50 for cancer cell line
Experimental: (§1) The antiproliferative activity of compounds 5a–r was determined based on an MTT assay and using CA-4 as standard against the tumor cell lines: HL-60 (human leukemia), SF-295 (human glioblastoma), MDA-MB435 (melanoma), PC3M (prostate cancer), OVCAR-8 (ovaries adenocarcinoma), NCI-H258M (pulmonary bronchio-alveolar carcinoma) and HCT-8 (adenocarcinoma ileocecal) (Table 2). To determine the selectivity index of compounds 5a–r, their antiproliferative profile was also evaluated toward human lymphocytes (Table 2).
(§2) Compounds (0.009–5 µg/mL) were tested for cytotoxic activity against selected cancer cell lines: SF-295 (glioblastoma), HCT-8 (colon), MDAMB-435 (melanoma), HL60 (leukemia), PC3M (prostate cancer), OVCAR-8 (ovaries adenocarcinoma) and NCI-H258M (pulmonary bronchio-alveolar carcinoma). All cell lines were kindly obtained from the National Cancer Institute (Bethesda, MD, USA).Tumor cell proliferation was quantified through the ability of living cells to reduce the yellow dye 3-(4,5-dimethyl-2-thiazolyl)-2,5-diphenyl-2H-tetrazolium bromide (MTT, Sigma Aldrich)) to a purple formazan product and absorbance was measured at 595 nm (DTX-880, Beckman Coulter).

[2] = test system: SF-295 (human glioblastoma); test: In vitro antiproliferative MTT assay, SF-295; assay type: cell-based; details: for IC50: Homo sapiens, SF-295, read-out: IC50 SF295; for SI Lymphocyte/ SF-295: IC50 for human lymphocytes/IC50 for cancer cell line
Experimental: as §1, §2

[3] = test system: HCT-8 (adenocarcinoma ileocecal); test: In vitro antiproliferative MTT assay, HCT-8; assay type: cell-based; details: for IC50: Homo sapiens, HCT-8; for SI Lymphocyte/ HCT-8: IC50 for human lymphocytes/IC50 for cancer cell line
Experimental: as §1, §2

[4] = test system: tumor cell lines; test: In vitro antiproliferative MTT assay, tumor cell lines (summary over the panel); assay type: cell-based; details: HL-60, SF296, HCT-8 and MDA-MB435 tumor cells
Experimental: as §1, §2

[5] = test system: MDA-MB435 (melanoma); test: In vitro antiproliferative MTT assay, MDA-MB435; assay type: cell-based; details: Homo sapiens, MDA-MB-435
[6] = Aqueous solubility assay by ultraviolet spectroscopy; assay type: physicochemical; details: water (saturated aqueous solution), thermodynamic from solid, 2 hours at 37°C, read-out: Aq. Solubility
Experimental: Ultraviolet spectroscopy was performed using Femto spectrophotometer. The wavelength used in solubility assay was determined by the -λ max characteristic of each compound. Spectra were analyzed in Femtoscan software. Mass spectrometry was obtained by positive ionization at Bruker AmaZon SL and data analyzed in Compass 1.3.SR2 software.
The solubility assay was performed considering the absorptivity of compounds in ultraviolet spectroscopy as described by Schneider and coworkers. The assay wavelength was determined by the λ max characteristic of each compound.
Saturated aqueous solutions were prepared (0.01 mg/mL) and were kept under stirring for 2 hours at 37°C. The supernatant was filtered in 0,45 µm filters and transferred to a quartz cuvette (10 mm) to spectra acquisition.
Solubility was determined by linear regression using as graph plots, solutions prepared by dilutions of the original solution in methanol. The data were obtained in triplicates and the mean values were used to the graph plots. The correlation coefficient (R^2) values were between 0.9972 and 0.9999.

[7] = test system: MDA-MB435 (melanoma); test: In vitro antiproliferative MTT assay, MDA-MB435; assay type: cell-based; details: IC50 for human lymphocytes/IC50 for cancer cell line
Experimental: as §1, §2

[8] = test system: PC3M (prostate cancer); test: In vitro antiproliferative MTT assay, PC3M; assay type: cell-based; details: for IC50: Homo sapiens, PC-3M, Table 2, MTT; for SI Lymphocyte/ PC3M: IC50 for human lymphocytes/IC50 for cancer cell line
Experimental: as §1, §2

[9] = test system: OVCAR-8 (ovaries adenocarcinoma); test: In vitro antiproliferative MTT assay, OVCAR-8; assay type: cell-based; details: for IC50: Homo sapiens, OVCAR-8, Table 2, MTT; for SI Lymphocyte/ OVCAR-8: IC50 for human lymphocytes/IC50 for cancer cell line
Experimental: as §1, §2

[10] = test system: NCI-H358M (pulmonary bronchio-alveolar carcinoma); test: In vitro antiproliferative MTT assay, NCI-H358M; assay type: cell-based; details: for SI Lymphocyte/ NCI-H358M: IC50 for human lymphocytes/IC50 for cancer cell line; for IC50: NCI-H358M, Table 2, MTT
[11] = test system: human lymphocytes; test: In vitro antiproliferative assay, human lymphocytes; assay type: cell-based; details: Lymphocyte, Table 2
Experimental: as §1
To investigate the selective cytotoxic activity of the N-acylhydrazones derivatives (5a–r), their antiproliferative potency was also assessed toward human lymphocytes and the results were compared to the data from CA-4 ([…]). The selectivity index (SI), which was the IC50 for human lymphocytes/IC50 for cancer cell lines after treatment with CA-4 and N-acylhydrazones (5a–r), was calculated, as depicted in Table 3. […] The best comparative selectivity indices (CA-4 vs 5b) were obtained from the SF-295 (SI = 13), MDA-MB435 (SI = 42) and NCI-H258M (SI = 9.5) tumor cell lines, and the worst results were found for OVCAR-8 (SI = 0.5).

## COc1cc(/C=N/NC(=O)c2ccccc2)cc(OC)c1OC [Compound 10, (E)-N′-(3,4,5-trimethoxybenzylidene)-benzohydrazide]
[1]; Table 4
  IC50: > 25 µM
[2]; Table 4
  IC50: > 25 µM
[3]; Table 4
  IC50: > 25 µM
[4]
  cytotoxic activity (in words): inactive
other
  melting point: 211 to 212 °C
[5]; Table 4
  IC50: > 25 µM

## COc1cc(NC(=O)N/N=C/c2ccccc2)cc(OC)c1OC [Compound 12, (E)-2-benzylidene-N-(3,4,5-trimetoxyphenyl) hydrazinecarboxamide]
[1]; Table 4
  IC50: > 25 µM
[2]; Table 4
  IC50: > 25 µM
[3]; Table 4
  IC50: > 25 µM
[4]
  cytotoxic activity (in words): inactive
other
  melting point: 217 °C
[5]; Table 4
  IC50: > 25 µM

## COc1cc(C(=O)N/N=C/c2ccc(F)cc2)cc(OC)c1OC [Compound 5p, (E)-N′-(4-fluorobenzylidene) - 3,4,5-trimetoxybenzohyidrazide]
[6]
  solubility at 2 h: 20.9 µg/mL (≈ 62.9 µM)
[1]; Table 2, MTT
  IC50: 1.27 µM
[1]
  SI Lymphocyte/ HL-60: 3.11±0.11
[2]; Table 2, MTT
  IC50: 2.69 µM
[2]
  SI Lymphocyte/ SF-295: 1.46±0.06
[3]; Table 2, MTT
  IC50: 2.02 µM
[3]
  SI Lymphocyte/ HCT-8: 1.85±0.04
[7]
  SI Lymphocyte/ MDA-MB345: 2.34±0.06
[8]
  IC50: 4.48 µM
  SI Lymphocyte/ PC3M: 0.89±0.01
[9]
  IC50: 0.96 µM
  SI Lymphocyte/ OVCAR-8: 4.38±0.38
[10]
  SI Lymphocyte/ NCI-H358M: 1.76±0.04
  IC50: 2.16 µM
[11]
  IC50: 3.82 µM
other
  melting point: 181 to 182 °C
[5]; Table 2, MTT
  IC50: 1.58 µM

## COc1cc(C(=O)N/N=C/c2coc3ccccc3c2=O)cc(OC)c1OC [Compound 5j, (E)-3,4,5-trimethoxy-N′-((4-oxo-4H-chromen-3-yl)methylene)benzohydrazide]
[6]
  solubility at 2 h: 0.783 µg/mL (≈ 2.05 µM)
[1]; Table 2, MTT
  IC50: > 25 µM
[1]
  SI Lymphocyte/ HL-60: 1
[2]; Table 2, MTT
  IC50: > 25 µM
[2]
  SI Lymphocyte/ SF-295: 1
[3]; Table 2, MTT
  IC50: 23.4 µM
[3]
  SI Lymphocyte/ HCT-8: 2.8
[7]
  SI Lymphocyte/ MDA-MB345: 1
[8]
  IC50: > 25 µM
  SI Lymphocyte/ PC3M: 1
[9]
  IC50: > 25 µM
  SI Lymphocyte/ OVCAR-8: 1
[10]
  SI Lymphocyte/ NCI-H358M: 1
  IC50: > 25 µM
[11]
  IC50: > 65.4 µM
other
  melting point: 205 to 206 °C
[5]; Table 2, MTT
  IC50: > 25 µM

## COc1cc(C(=O)N/N=C/c2cccc(O)c2)cc(OC)c1OC [Compound 5c, (E)-N′-(3-hydroxybenzylidene)-3,4,5-trimetoxybenzohydrazide]
[6]
  solubility at 2 h: 5.68 µg/mL (≈ 17.2 µM)
[1]; Table 2, MTT
  IC50: 1.63 µM
[1]
  SI Lymphocyte/ HL-60: 2.60±0.10
[2]; Table 2, MTT
  IC50: 13.1 µM
[2]
  SI Lymphocyte/ SF-295: 0.32±0.02
[3]; Table 2, MTT
  IC50: 4.3 µM
[3]
  SI Lymphocyte/ HCT-8: 0.96±0.35
[7]
  SI Lymphocyte/ MDA-MB345: 32.50±4.50
[8]
  IC50: 7.51 µM
  SI Lymphocyte/ PC3M: 0.58±0.01
[9]
  IC50: 5.78 µM
  SI Lymphocyte/ OVCAR-8: 0.80±0.005
[10]
  SI Lymphocyte/ NCI-H358M: 0.48±0.01
  IC50: 9.5 µM
[11]
  IC50: 4.48 µM
other
  melting point: 227 to 229 °C
[5]; Table 2, MTT
  IC50: 0.12 µM

## COc1cc(C(=O)N/N=C/c2ccc(O)cc2)cc(OC)c1OC [Compound 5d, (E)-N′-(4-hydroxybenzylidene)-3,4,5-trimetoxybenzohydrazide]
[6]
  solubility at 2 h: 15 µg/mL (≈ 45.4 µM)
[1]; Table 2, MTT
  IC50: 2.63 µM
[1]
  SI Lymphocyte/ HL-60: 5.15±0.05
[2]; Table 2, MTT
  IC50: 16 µM
[2]
  SI Lymphocyte/ SF-295: 0.82±0.02
[3]; Table 2, MTT
  IC50: 6.54 µM
[3]
  SI Lymphocyte/ HCT-8: 2.07±0.07
[7]
  SI Lymphocyte/ MDA-MB345: 16.06±0.86
[8]
  IC50: 4.57 µM
  SI Lymphocyte/ PC3M: 2.96±0.86
[9]
  IC50: 6.18 µM
  SI Lymphocyte/ OVCAR-8: 2.22±0.02
[10]
  SI Lymphocyte/ NCI-H358M: 1.16±0.06
  IC50: 11.8 µM
[11]
  IC50: 13.4 µM
other
  melting point: 189 °C
[5]; Table 2, MTT
  IC50: 0.88 µM

## O=C(N/N=C/c1ccccc1)c1ccccc1 [Compound 9, (E)-N′-benzylidenebenzohydrazide]
[1]; Table 4
  IC50: > 25 µM
[2]; Table 4
  IC50: > 25 µM
[3]; Table 4
  IC50: > 25 µM
[4]
  cytotoxic activity (in words): loss of cytotoxic activity
other
  melting point: 211 to 212 °C
[5]; Table 4
  IC50: > 25 µM

## COc1cc(C(=O)N/N=C/c2cc(C(C)(C)C)c(O)c(C(C)(C)C)c2)cc(OC)c1OC [Compound 5k, (E)-N′-(3,5-di-tert-butyl-4hydroxybenzylidene)-3,4,5-trimetoxybenzohydrazide]
[6]
  solubility at 2 h: 0.0236 µg/mL (≈ 0.0533 µM)
[1]; Table 2, MTT
  IC50: > 25 µM
[1]
  SI Lymphocyte/ HL-60: 1.1
[2]; Table 2, MTT
  IC50: > 25 µM
[2]
  SI Lymphocyte/ SF-295: 1
[3]; Table 2, MTT
  IC50: > 25 µM
[3]
  SI Lymphocyte/ HCT-8: 1
[7]
  SI Lymphocyte/ MDA-MB345: 1
[8]
  IC50: > 25 µM
  SI Lymphocyte/ PC3M: 1
[9]
  IC50: > 25 µM
  SI Lymphocyte/ OVCAR-8: 1
[10]
  SI Lymphocyte/ NCI-H358M: 1
  IC50: > 25 µM
[11]
  IC50: > 56.5 µM
other
  melting point: 222 to 224 °C
[5]; Table 2, MTT
  IC50: > 25 µM

## COc1cc(C(=O)N/N=C/c2ccc(O)c(O)c2)cc(OC)c1OC [Compound 5e, (E)-N′-(3,4-dihydroxybenzylidene)-3,4,5-trimetoxybenzohydrazide]
[6]
  solubility at 2 h: 3.94 µg/mL (≈ 11.4 µM)
[1]; Table 2, MTT
  IC50: 9.3 µM
[1]
  SI Lymphocyte/ HL-60: 0.82±0.02
[2]; Table 2, MTT
  IC50: > 25 µM
[3]; Table 2, MTT
  IC50: > 25 µM
[7]
  SI Lymphocyte/ MDA-MB345: 0.06±0.00
[8]
  IC50: 24.4 µM
  SI Lymphocyte/ PC3M: 0.30±0.005
[9]
  IC50: > 25 µM
  SI Lymphocyte/ OVCAR-8: 0.2±0.00
[10]
  SI Lymphocyte/ NCI-H358M: 0.30±0.00
  IC50: > 25 µM
[11]
  IC50: 7.36 µM
other
  melting point: 160 °C
[5]; Table 2, MTT
  IC50: 11.8 µM
